These results are taken from patent US20060122279A1, “Hydrophobic polyamine amides as potent lipopolysaccharide sequestrants” (priority 2004, published 2006).

Each structure is given as a SMILES string. Where “and” joins values, the source holds several entries; their conditions need not be identical. Identical values can stand only once. Like-named read-outs stand apart in the source and are kept apart here.

In one experiment the test system is CF-1 mice. The settings on record: previous studies (ref. 37); cited from earlier work.
Experiment [1] concerns murine macrophage J774.A1 cells. Kind of experiment: Nitric oxide (NO) inhibition in LPS-stimulated J774.A1 cells (Griess). The class given is cell-based. The settings on record: for prevention of LPS-induced NO release from J774.A1 macrophages: in words. As for the experimental part:
Murine monocytes (J774.A1 cells) produce measurable quantities of NO on exposure to LPS and provide a model for the rapid assessment of compounds to neutralize LPS activity. […] In all experiments, Polymyxin B (PMB), a decapeptide antibiotic, known to bind and neutralize LPS,^29;47;48 is used as a reference compound.
Nitric oxide production is measured as total nitrite in murine macrophage J774.A1 cells using the Griess reagent system.^53;54 Murine macrophage J774.A1 cells are grown in RPMI-1640 cell-culture medium containing L-glutamine and sodium bicarbonate and supplemented with 10% fetal bovine serum, 1% L-glutamine-penicillin-streptomycin solution, and 200 μg/ml L-arginine at 37° C. in a 5% CO2 atmosphere. Cells are plated at ˜2×10^6/ml in a volume of 40 μl/well, in 384 well, flat-bottomed, cell culture treated microtiter plates until confluency and subsequently stimulated with 100 ng/ml lipopolysaccharide (LPS). Concurrent to LPS stimulation, serially diluted concentrations of test compounds are added to the cell medium and left to incubate overnight for 16 h. Polymyxin B is used as reference compound in each plate. Positive—(LPS stimulation only) and negative-controls (J774.A1 medium only) are included in each experiment. Nitrite concentrations are measured adding 30 μl of supernatant to equal volumes of Griess reagents (50 μl/well; 0.1% NED solution in ddH2O and 1% sulfanilamide, 5% phosphoric acid solution in ddH2O) and incubating for 15 minutes at room temperature in the dark. Absorbance at 535 nm is measured using a Molecular Devices Spectramax M2 multifunction plate reader (Sunnyvale, Calif.). Nitrite concentrations are interpolated from standard curves obtained from serially diluted sodium nitrite standards.
(In general: Nitrite, measured by Griess reagent, commonly stands in for NO production.)

Another experiment has as its system NFκB. Kind of experiment: NFκB inhibition (LPS-induced). The class given is cell-based. To be noted: for prevention of LPS-induced NFκβ cytokine release from stimulated lymphocytes: in words; for IC50: Table 7 focused library, NFκB inhibition, read-out: NFκ B. The source says:
A focused library of alkyl or acyl c-substituted lysine-spermine conjugates is synthesized with even carbon-numbered chains of C14 to C20 lengths. […] Furthermore, the data showhigh activity compounds are those with chain lengths between C16 and C20. […] The exemplary compounds L-Lys-ε-(stearoyl)-N^1-spermine, D-Lys-ε-(stearoyl)-N^1-spermine, L-Lys-ε-(octadecanyl)-N^1-spermine and D-Lys-ε-(octadecanyl)—N1-spermine all show high activity for the prevention of LPS-induced NFκβ cytokine release from stimulated lymphocytes. Furthermore, the exemplary compounds L-Lys-ε-(stearoyl)-N^1-spermine, D-Lys-ε-(stearoyl)-N^1-spermine, L-Lys-ε-(octadecanyl)-N^1-spermine and D-Lys-ε-(octadecanyl)-N^1-spermine all show high activity for the prevention of LPS-induced NO release from stimulated lymphocytes.

Experiment [2] is classed as binding, E. coli 0111:B4. The settings on record: for EC50: E. coli 0111:B4 LPS, Tables 1-3, read-out: ED50 (half-maximal effective displacement of BC probe from LPS). As to the method:
Polymyxin B (PMB), a peptide antibiotic known to bind and neutralize LPS^47 serves as the positive control and reference compound for every plate, enabling the quantitative assessment of repeatability and reproducibility (CV and Z′ factors) for the assay. Robotic liquid handling is performed on a Precision 2000 automated microplate pipetting system, programmed using the Precision Power software, Bio-Tek Instruments Inc., VT, USA. Stock solutions of LPS (5 mg/ml; E. coli 0111:B4; procured from Sigma) and BC (500 μM) are prepared in Tris buffer (pH 7.4, 50 mM). 1 ml each of the LPS and BC stocks are mixed and diluted in Tris buffer to a final volume of 100 ml, yielding final concentrations of 50 μg/ml of LPS and 5 μM BC. 40 μl of this BC:LPS mixture is added to each well of the plate using the Precision 2000. Fluorescence measurements are made at 25° C. on a Fluoromax-3 with Micromax Microwell 384-well plate reader, using DataMax software, Jobin Yvon Inc., N.J. The BC excitation wavelength is 580 nm, emission spectra are taken at 620 nm with both emission and excitation monochromator bandpasses set at 5 nm.

The mark [3] stands for this setting: Table 7 focused library, NO inhibition, read-out: NO.
Setting [4] is: J774.A1 cells, 100 ng/ml LPS, 16 h, Tables 1-3, read-out: NO IC50.
The mark [5] stands for this setting: Mus musculus, J774.A1, 16 h, J774.A1 cells, 100 ng/ml LPS, 16 h, Tables 1-3, read-out: NO IC50.
[6] abbreviates: Mus musculus, J774.A1, Table 7 focused library, NO inhibition, read-out: NO.

Regarding `CCCCCCCC/C=C\CCCCCCCC(=O)OCC(COC(=O)CCCCCCC/C=C\CCCCCCCC)NC(=O)C(CCCNCCCN)NCCCN` (stereo not shown) [DOSPER], the window of protection in the experiment on CF-1 mice was 15 min.
On to `CCCCCCCCCCCCCCCCCCNCCCC[C@H](N)C(=O)NCCCNCCCCNCCCN` [Compound 44, L-Lys-ε-(octadecanyl)-N^1-spermine], for which, in experiment [1] (setting [3]), the IC50 was 2.25 µM. Moreover, the “prevention of LPS-induced NO release from J774.A1 macrophages” value (from here on “prevention of LPS-induced NO release”) in experiment [1] is “high activity”. In addition, the “prevention of LPS-induced NFκβ cytokine release from stimulated lymphocytes” value (shortened to “prevention … from stimulated lymphocytes”) with NFκB was “high activity”.
On to `CCCCCCCCCCCCCCCCCCCC(=O)NCCCCC(N)C(=O)NCCCNCCCCNCCCN` [Compound 7, L-Lys-ε-(eicosanoyl)-N^1-spermine], for which the EC50 in experiment [2] amounted to 6.46 µM. Also, the IC50 in experiment [1] (setting [4]) is 1.21 µM; in experiment [1] (setting [5]) it was 1.2 µM; in experiment [1] (setting [6]), 4.69 µM; in the experiment with NFκB it was 1.24 µM.
As for `CCCCCCCCCCCCCC(=O)NCCCCC(N)C(=O)NCCCNCCCCNCCCN` [Compound 16, L-Lys-ε-(myristoyl)-N^1-spermine], the EC50 in experiment [2] worked out at 5.63 µM. In addition, the IC50 in experiment [1] (setting [5]) amounted to 1.6 µM; in experiment [1] (setting [6]), 22.2 µM; in the experiment on NFκB it was 0.753 µM.
On to `CCCCCCCCCCCCCCCCNCCCCC(N)C(=O)NCCCNCCCCNCCCN` [Compound 26, L-Lys-ε-(“hexadecyl)-N^1-spermine], for which the EC50 in experiment [2] is 5.6 µM and 5.56 µM. In addition, the IC50 in experiment [2] (b47, cis-unsaturated vs saturated alkyl) amounted to 5.6 µM; in experiment [1] (setting [6]), 3.78 µM; with NFκB it was 0.19 µM.
With `CCCCCCCCCCCCCCCCCCNCCCC[C@@H](N)C(=O)NCCCNCCCCNCCCN` [Compound 48, D-Lys-ε-(octadecanyl)-N^1-spermine], the IC50 in experiment [1] (setting [3]) is 3.08 µM. Also, the “prevention of LPS-induced NO release” value in experiment [1] was “high activity”. Moreover, the “prevention … from stimulated lymphocytes” value in the experiment on NFκB is recorded as “high activity”.
In the case of `CCCCCCCCCCCCCCCCCC(=O)NCCCCC(N)C(=O)NCCCNCCCCNCCCN` [Compound 9, L-Lys-ε-(stearoyl)-N^1-spermine], in experiment [2], the EC50 is 16 µM and 16.4 µM. The IC50 stood at 18.1 µM in experiment [1] (setting [4]), 8.78 µM in experiment [1] (setting [6]) and 0.736 µM with NFκB. For the same compound, in experiment [1], the “prevention of LPS-induced NO release” value is “high activity”. Also, the “prevention … from stimulated lymphocytes” value in the experiment with NFκB is “high activity”.
As to `CCCCCCCCCCCCCCCC(=O)NCCCCC(N)C(=O)NCCCNCCCCNCCCN` [Compound 14, L-Lys(palmitoyl)-N^1-spermine], the EC50 in experiment [2] is 11 µM and 10.7 µM. Also, the IC50 in experiment [1] (setting [4]) was 6.41 µM; in experiment [1] (setting [6]) it was 16.8 µM; in experiment [1] (read-out: NO IC50, J774.A1 cells, 100 ng/ml LPS, 16 h, Tables 1-3) it was 6.4 µM; in the experiment on NFκB, 0.819 µM.
